In patent US9089546B2, “Synergistic compositions consisting essentially of combinations of active agents selected from oridonin, wogonin, and isoliquiritigenin for the prevention of neoplasia” (ACTIVEPHYTO TECHNOLOGIES LIMITED, priority 2006, dated 2015):

Legend:
Type in all cases: cell-based
[1] = system: PTX10; assay: MTT assay, second set of experiments (Experiment 4), single agents; conditions: Homo sapiens, PTX10 (taxol-resistant)
Procedure: (§1) Inhibition of Cell-Growth and Viability […]: The MTT reagent kit was purchased from Boehringer Mannheim (Roche Diagnosis Corp, Indianapolis, Ind.) to count viable cells. […] The protocol for the cell viability assay was provided by the manufacturer and modified in our laboratory as described below: Ovarian cancer cells were seeded in 96 well microtiter plates at a concentration of 6×10^3 cells per well, in a volume of 100 μL of cell culture medium. After 24 hours, 20 μL aliquots of the compounds at various concentrations were added to the attached cells. Each concentration was plated into 3 wells to obtain mean values. To eliminate any solvent effect, 20 μL of the solvent used in the preparation of the highest concentration of the compounds (a maximum of 0.5% by volume of DMSO) was added to the control cells in each well. The plates were incubated at 37° C. in the CO2 incubator for 72 hours. At the end of day 3, the culture medium was carefully removed without disturbing the cells, and replaced by 100 μL of fresh cell medium. 10 μL of MTT reagent was added to each well and the plates were incubated again in the CO2 incubator at 37° C. for 4 hours. 100 μL of SDS solubilising reagent (from Boehringer Mannheim) was added to each well. The plate was allowed to stand overnight in the CO2 incubator and read by ELISA Reader (EL800, Bio-Tek Instruments, Inc.) at a wavelength of 570 nm. The percent cell viability was calculated according to the equation below: 100% (absorption of the control cells-absorption of the treated cells)/absorption of the control cells. A second set of experiments were carried out showing how the compounds in the formulations of the invention act in synergy with one another. The experimental results differ slightly from those reported above as the experimental work was carried out in a different laboratory and under slightly different conditions. In the second set of experiments the MTT reagent kit was purchased from Sigma-Aldridge in the UK and, due to time constraints; the cells were only incubated overnight prior to being treated with the drugs. The cell lines were also of different origin (the second set being obtained directly from Dr Marianne Poruch of the NIH, Bethesda Md., USA) and may have been subjected to different conditions during storage.

[2] = system: A2780; assay: as above; conditions: Homo sapiens
Procedure: as §1

[3] = system: human ovarian cancer cell lines A2780 (sensitive) and PTX-10 (resistant to taxol); assay: Antiproliferative activity, MTT cell viability assay, first set of experiments (72 h), comparison of the two cell lines; conditions: A2780 versus taxol-resistant PTX-10
From the text: The present investigation uses two types of cancer cells: A2780 and PTX-10. A2780 is typical of most human ovarian cancers and is not known to be drug-resistant. PTX10 is a taxol-resistant variant of A2780. These two cell types provide a model to compare the effectiveness of the compositions of the present invention against a typical ovarian human cancer where taxol would be a useful treatment and a tumour line where taxol is not useful in treatment.
Cell lines: A2780 and PTX-10 cell lines were from National Institute of Health, Bethesda, Md.
Cell Culture: Both cell lines were cultured in RPMI 1640 supplemented with 10% foetal bovine serum, L-glutamine and antibiotics according to the method of Halicka et al. (Int. J. Oncology 1:437-48, 1997). All media, supplements, and antibiotics were obtained from Life Technologies (Grand Island, N.Y.). The cultures were periodically tested for Mycoplasma infection.
To maintain asynchronous exponential growth, these adherent cells were routinely seeded at 3×10^5 in a T-75 flask and incubated at 37° C. in 5% CO2 for 5-6 days and then repassaged at a 1:10 dilution by trypsinisation (0.25% trypsin/1 mM EDTA). Morphological changes and cell counts of the control and treated cancer cells were determined by light microscopy. Only exponentially and asynchronously growing cells were used in all experiments.
Inhibition of Cell-Growth and Viability AssASYS: The MTT reagent kit was purchased from Boehringer Mannheim (Roche Diagnosis Corp, Indianapolis, Ind.) to count viable cells. […] The protocol for the cell viability assay was provided by the manufacturer and modified in our laboratory as described below: […]
The plates were incubated at 37° C. in the CO2 incubator for 72 hours. […] The plate was allowed to stand overnight in the CO2 incubator and read by ELISA Reader (EL800, Bio-Tek Instruments, Inc.) at a wavelength of 570 nm. The percent cell viability was calculated according to the equation below: 100% (absorption of the control cells−absorption of the treated cells)/absorption of the control cells. […]

IC50 [2] [nM] | SMILES | IC50 [1] [nM] | relative sensitivity of the cell lines (dose-response curves, antiproliferative activity) [3]
810 ± 130 | C=C1C(=O)[C@]23[C@H](O)[C@H]1CC[C@H]2[C@@]12CO[C@]3(O)[C@@H](O)[C@@H]1C(C)(C)CC[C@@H]2O [Formula I, oridonin] | 4720 ± 3700 | A2780 cell line is more sensitive
670 ± 230 | COc1c(O)cc(O)c2c(=O)cc(-c3ccccc3)oc12 [Formula III, wogonin] | 590 ± 380 | PTX-10 cell line is slightly more sensitive
2400 ± 420 | O=C(/C=C/c1ccc(O)cc1)c1ccc(O)cc1O [Formula V, isoliquiritigenin] | 300 ± 130 | PTX-10 cell line is more sensitive
